Laboratory results taken from patent US20170165266A1 (Celgene Corporation, priority 2010, published 2017).
Counter-ions that a name gives are not always drawn.

Experiments:
[1] = system: bleomycin induced dermal fibrosis; conditions: previously shown, Akhmetshina et al. 2009; cited from earlier work
IL-10 [2] = test: IL-10 production in LPS-stimulated hPBMC (Luminex); type: cell-based, human; conditions: at 10 μM; used as upper constraint for EC50s
Protocol: (§1) 50 ml human buffy coat was aliquoted 25 ml each into two 50 ml conical tubes and 25 ml sterile HBSS was added to each conical tube. The tubes were gently mixed by inverting. Fifteen ml of room temperature Ficoll-Paque Plus (GE Healthcare (location); cat #17-1440-02) was aliquoted into four 50 ml conical tubes. Then 25 ml of the Buffy coat/HBSS mixture was layered gently and slowly on top of the Ficoll. The samples were centrifuged at 450 rpm for 35 minutes. The top layered containing plasma was pipetted off and discarded. The interface containing mononuclear cells was transferred into two 50 ml conical tubes. Both conical tubes were filled to total volume of 50 ml with HBSS and centrifuged at 1200 rpm for 10 minutes. The cells were washed again in HBSS and spun at 1000 rpm for 10 minutes. Cell pellet was resuspended with 20 ml RPMI complete medium (RPMI/5% human sera/1× pen/strep/glut) and counted.
(§2) One hundred μl (2×10^6/ml) of hPBMCs were added to each well of a 96 well flat-bottom plate (final cell count=2×10^5/well) and incubated at 37° C. for 1 hour. […]
(§3) Supernatant samples were analyzed for cytokines in multiplex format according to the manufacturer's instructions (Millipore, Billerica, Mass. 01821) using a Luminex IS100 instrument. […]

MIP-1β = MIP-1β production in LPS-stimulated hPBMC (Luminex); type: cell-based; conditions: Homo sapiens; LPS 1 ng/ml, 18 hours
Protocol: as §1, §2, §3

[3] = system: anti-CD3-stimulated human T cells; test: Cytokine and chemokine production in anti-human CD3-stimulated human T cells (Luminex); type: cell-based; conditions: 48 hours
Protocol: (§4) The test compounds were prepared as stock solutions of 4 mM in DMSO. T cells were isolated from buffy coat by negative selection using the RosetteSep® T Cell Enrichment Cocktail according to manufacturer's procedures. All 96-well plates were pre-coated with 3 μg/mL anti-human CD3 antibody in 100 μL 1× PBS for 4 hours at 37° C. The plates were washed 3 times with RPMI-1640 Complete Media prior to the T cell assay. The T cells were then plated in anti-CD3-pre-coated plates at a density of 2.5×10^5 cells/well in 180 μL RPMI-1640 Complete Media. […] The final DMSO concentrations were 0.25%. The plates were incubated for 48 hours at 37° C., 5% CO2. After 48 hours, the supernatants were harvested and tested by a multiplex cytometric bead array (CBA) assay for the following cytokines/chemokines: IL-2, IL-3, IL-5, IL-10, IL-13, IL-15, IL-17A, GM-CSF, G-CSF, IFN-γ, TNF-α, and RANTES. The CBA plates were analyzed on the Luminex IS100 instrument. Data from each donor was graphed using GraphPad Prism 5.0 software and expressed as mean pg/mL±SEM and % of DMSO control±SEM.

IgG production = IgG production in B cell differentiation assay (ELISA); type: cell-based; conditions: Homo sapiens
Protocol: (§5) Step 1—B cell Activation—day 0 through day 4: Prepare fresh B cell cocktail by adding 50 μg/mL of human transferrin to B cell media. (Iscoves +10% PFBS, 1% P/S, and 5 μg/mL human insulin). Filter required volume of media needed for experiment through a […] filter. Add B cell differentiation cocktail (final concentration): recombinant human IL-2 (20 U/mL), IL-10 (50 ng/mL), IL-15 (10 ng/mL), CD40 Ligand/TNFSFS/histidine-tagged (50 ng/mL), polyHistidine mouse IgG1 antibody (5 μg/mL), and ODN 2006-Human TLR9 ligand (10 μg/mL) to cells. Five milliliters (1×10^5/ml) of CD19+ B cell were added to each well of a 6 well flat-bottom plate (final cell count=5×10^5/well). Five μL (1×)±compound/DMSO was added to each test well (0.1% final DMSO) and incubated at 37° C. for 4 days.
(§6) Step 2—Plasmablast Generation—day 4 through day 7: Cells were harvested and counted on the cell counter; an aliquot was removed for flow analysis, the remaining cells were washed with PBS. […]
(§7) On day 7, cells were harvested and counted on the cell counter. […]
(§8) Supernatants (from section 8.4.3) were harvested and analyzed by ELISA for IgG and IgM production (ZeptoMetrix Corp. Buffalo, N.Y.).
(§9) The data was graphed using GraphPad Prism 5.0 software. […] The results for test compounds in the Ig assays were expressed as the percentage inhibition relative to control DMSO values.

IL-5 = IL-5 production in anti-human CD3-stimulated human T cells; type: cell-based; conditions: 48 hours
Protocol: as §4

[4] = system: bleomycin induced dermal fibrosis; test: Modified bleomycin induced dermal fibrosis mouse model, regression of established fibrosis; type: in vivo, DBA/2 mice; conditions: 30 mg/kg, PO, QD, p<0.0001
Protocol: Skin fibrosis was induced in 6-week-old DBA mice by local intracutaneous injections of 100 μl of bleomycin dissolved in 0.9% NaCl, at a concentration of 0.5 mg/ml, every other day in defined areas of 1.5 cm2 on the upper back.
Dermal thickness was determined by staining with hematoxylin and eosin and activated fibroblasts by using immunohistochemistry for alpha smooth mucle actin (α-SMA). […] Skin sections were stained with hematoxylin/eosin for better visualization of the tissue structure. Dermal thickness was analyzed with a Nikon Eclipse 80i microscope (Nikon, Badhoevedorp, The Netherlands) by measuring the maximal distance between the epidermal-dermal junction and the dermal-subcutaneous fat junction at 4 different skin sections in each mouse. The evaluation was performed by 2 independent examiners.

NK cell IFN-γ production = test: NK IgG-induced interferon-gamma (IFN-gamma) assay; type: cell-based, human
Protocol: NK cells from healthy donors were isolated from buffy coat blood by negative selection using the RosetteSep NK cell enrichment cocktail (Stem Cell Technologies, Vancouver, BC) prior to Ficoll-Hypaque (Fisher Scientific Co LLC, PA) density gradient centrifugation following the manufacturers' instructions. CD56+ NK cells were isolated to ˜85% purity, as determined by flow cytometry (BD Biosciences, CA). Ninety-six-well flat-bottom plates were coated with 100 μg/mL of human IgG (Sigma) overnight at 4° C. The next day, unbound IgG was washed away with cold 1× PBS. NK cells were then plated in the IgG-coated 96-well plates at 2×10^5 cells per well in 180 μL RPMI-1640 Media and 10 ng/mL of rhIL-2 (R & D Systems, MN) was added. […] Final DMSO concentrations were 0.25%. After 48 hours, the supernatants were harvested and analyzed by ELISA for IFN-γ production. […] The data are presented in two ways, (1) as the absolute amount if IFN-γ produced (pg/mL±SEM) and (2) as the percentage of the amount of IFN-γ produced in the presence of 1 μM pomalidomide.

[5] = system: bleomycin induced dermal fibrosis; test: Bleomycin induced dermal fibrosis mouse model, prevention of fibrosis; type: in vivo, DBA/2 mice; conditions: 30 mg/kg, PO, QD, p<0.0001
Protocol: Bleomycin was obtained from the pharmacy of the University of Erlangen-Nuremberg and freshly prepared once a week. Skin fibrosis was induced in 6-week-old DBA mice by local intracutaneous injections of 100 μl of bleomycin dissolved in 0.9% NaCl, at a concentration of 0.5 mg/ml, every other day in defined areas of 1.5 cm2 on the upper back.
In this model, a localized dermal fibrosis is induced by intradermal injections with bleomycin every other day for 3 weeks. […] To evaluate potential effects on prevention of fibrosis, treatment was initiated simultaneously with the first bleomycin injection. […]
Dermal thickness was determined by staining with hematoxylin and eosin and activated fibroblasts by using immunohistochemistry for alpha smooth mucle actin (α-SMA). […] Dermal thickness was analyzed with a Nikon Eclipse 80i microscope (Nikon, Badhoevedorp, The Netherlands) by measuring the maximal distance between the epidermal-dermal junction and the dermal-subcutaneous fat junction at 4 different skin sections in each mouse. […]
For quantification of myofibroblasts, skin sections were deparaffinized and incubated with 5% bovine serum albumin for 60 minutes. Cells positive for α-SMA were detected by incubation with monoclonal anti-α-SMA antibodies (clone 1A4; Sigma-Aldrich, Steinheim, Germany) for 2 hours at room temperature followed by incubation with 3% hydrogen peroxide for 10 minutes. […]

[6] = system: Rituximab coated lymphoma cells (WSU-DLCL2, Farage, DoHH2, Riva, Raji); test: ADCC assay: NK cell-mediated ADCC (LDH release); type: cell-based, human; conditions: 0.01 to 10 μM, 48 hours pretreatment, effector:target 10:1
Source text: NK cells from healthy donors were isolated from buffy coat blood by negative selection using the RosetteSep NK cell enrichment cocktail (Stem Cell Technologies, Vancouver, BC) prior to Ficoll-Hypaque (Fisher Scientific Co LLC, PA) density gradient centrifugation following the manufacturers' instructions. CD56+ NK cells were isolated to ˜85% purity, as determined by flow cytometry (BD Biosciences, CA). […] Various lymphoma cell lines (GCB-DLBCL: WSU-DLCL2 and Farage; Follicular lymphoma:DoHH2; ABC-DLBCL: Riva; Burkitt's lymphoma [BL]: Raji) were treated with 5 μg/mL rituximab for 30 minutes at 37° C. Unbound rituximab was washed off, target cells (5×103/100 μL/well) were added to the pretreated effector cells (NK cells) at a 10:1 ratio, and the two were co-incubated for 4 hours at 37° C. […] Using an aliquot of supernatant (50 μL), NK cell cytotoxicity against tumor cells was analyzed using a standard lactate dehydrogenease (LDH) release assay to measure ADCC (CytoTox 96 Non-Radioactive Cytoxicity Assay, Promega, WI). Spontaneous release by target cells alone was <15% of the maximum release, as determined with target cells lysed in 1% Triton X-100. […] The percentage of specific lysis was calculated according to the formula: Percentage specific lysis=100×(experimental−effector spontaneous−target spontaneous)/(target maximum−target spontaneous).

IL-10 [7] = test: IL-10 production in anti-human CD3-stimulated human T cells; type: cell-based
Protocol: as §4

IgM production = IgM production in B cell differentiation assay (ELISA); type: cell-based; conditions: Homo sapiens
Protocol: as §5, §6, §7, §8, §9

IL-8 = IL-8 production in LPS-stimulated hPBMC (Luminex); type: cell-based; conditions: Homo sapiens; LPS 1 ng/ml, 18 hours
Protocol: as §1, §2, §3

IL-1β = IL-1β production in LPS-stimulated hPBMC (Luminex); type: cell-based; conditions: Homo sapiens; LPS 1 ng/ml, 18 hours
Protocol: as §1, §2, §3

TNF-α = TNF-α production in LPS-stimulated hPBMC (Luminex); type: cell-based; conditions: Homo sapiens; LPS 1 ng/ml, 18 hours
Protocol: as §1, §2, §3

For Cc1ccc(NC(=O)c2ccc(CN3CCN(C)CC3)cc2)cc1Nc1nccc(-c2cccnc2)n1 [Imatinib mesylate], the “anti-fibrotic effects in bleomycin induced dermal fibrosis” value [1] is listed as “potent anti-fibrotic effects”.
In the case of Nc1cccc2c1C(=O)N(C1CCC(=O)NC1=O)C2=O (stereo not drawn) [pomalidomide], the “average IL-10 enhancement” value (IL-10 [2]) is reported as 246.9%.
With Cc1nc2cccc(N)c2c(=O)n1C1CCC(=O)NC1=O (stereo not drawn) [test compound, 3-(5-amino-2-methyl-4-oxoquinazolin-3(4H)-yl)piperidine-2,6-dione] the IC50 (MIP-1β) was > 10000 nM, the “IL-2, IL-3, IL-5, IL-10, IL-13, GM-CSF, IFN-γ, RANTES, and TNF-α production in stimulated human T cells” value [3] was “enhanced” and the IC50 (IgG production; Normal (n = 3)) was 61 nM. For the same compound, the IC50 (IgG production; SLE (n = 3)) was 46 nM, the “increase of IL-5 production” value (IL-5; 0.01 μM) was 3 fold and the “increase of IL-5 production” value (IL-5; 0.1 μM) was 4 fold. The “reduction of bleomycin induced dermal thickening” value [4] was 22±0.28%, the EC50 (NK cell IFN-γ production; Homo sapiens, immobilized IgG and rhIL-2, 48 hours, maximal = IFN-γ produced with 1 μM pomalidomide, read-out: EC50, half-maximal IFN-γ production) was 1.5 nM and the “NK cell IFN-γ production” value (NK cell IFN-γ production; immobilized IgG and IL-2 stimulation) was “enhanced”. For the same compound, the “prevention of dermal thickening” value ([5]; three weeks) was “approximately 22±0.49%”, the “reduction of number of α-SMA+ myofibroblasts in lesional skin” value [5] was 30±0.23% and the “NK cell-mediated ADCC” value [6] was “induced dose-dependent NK cell-mediated ADCC in all cell lines”. The IL-10 production (IL-10 [7]; at higher concentrations) was “inhibited enhancement of IL-10 production”, the IL-10 production (IL-10 [7]; at lower concentrations) was “enhanced IL-10 production” and the IC50 (IgM production; Normal (n = 3)) was 23 nM. For the same compound, the IC50 (IgM production; SLE (n = 3)) was 30 nM, the IC50 (IL-8) was > 10000 nM and the IC50 (IL-1β) was 54 nM. It also gave an IC50 (TNF-α) of 34 nM.
